# pIC50: −log10 of the molar value. Counter-ions that a name gives are not always drawn.
# Tested on: Rat
# Test: Formaldehyde test (rat), phase 2
# Assay type: in vivo
# Conditions: p.o., at 21.5 mg/kg
row,SMILES,"% inhibition, Rat p.o."
1,"CC(C)(C)Nc1c(-c2ccc(C#Cc3cccs3)s2)nc2cnccn12.Cl [Example 110, N-tert-butyl-2-(5-(thiophen-2-ylethynyl)thiophen-2-yl)imidazo[1,2-a]pyrazin-3-amine hydrochloride]",61% at 21.5

# Biological target: mGluR5 receptor (Sus scrofa, UniProt I3LUI7)
# Test: Affinity for the mGluR5 receptor: inhibition of 3[H]-MPEP binding in pig brain homogenate
# Conditions: 10 μM compound, 5 nM 3[H]-MPEP, read-out: mGluR5 receptor inhibition of ^3[H]-MPEP binding [10 μM] in % at a concentration of the example compounds of 10 μM
# Outline: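 Pig brain membranes (450 μg protein; hemispheres without medulla, cerebellum and pons) in 30 mM Hepes pH 8.0 were incubated 60 min at room temperature with 5 nM [3H]-MPEP and compound at 10 μM. Bound radioactivity was filtered and counted. Nonspecific binding was defined with 10 μM MPEP.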
# Sequence of mGluR5 receptor (I3LUI7 19-1212): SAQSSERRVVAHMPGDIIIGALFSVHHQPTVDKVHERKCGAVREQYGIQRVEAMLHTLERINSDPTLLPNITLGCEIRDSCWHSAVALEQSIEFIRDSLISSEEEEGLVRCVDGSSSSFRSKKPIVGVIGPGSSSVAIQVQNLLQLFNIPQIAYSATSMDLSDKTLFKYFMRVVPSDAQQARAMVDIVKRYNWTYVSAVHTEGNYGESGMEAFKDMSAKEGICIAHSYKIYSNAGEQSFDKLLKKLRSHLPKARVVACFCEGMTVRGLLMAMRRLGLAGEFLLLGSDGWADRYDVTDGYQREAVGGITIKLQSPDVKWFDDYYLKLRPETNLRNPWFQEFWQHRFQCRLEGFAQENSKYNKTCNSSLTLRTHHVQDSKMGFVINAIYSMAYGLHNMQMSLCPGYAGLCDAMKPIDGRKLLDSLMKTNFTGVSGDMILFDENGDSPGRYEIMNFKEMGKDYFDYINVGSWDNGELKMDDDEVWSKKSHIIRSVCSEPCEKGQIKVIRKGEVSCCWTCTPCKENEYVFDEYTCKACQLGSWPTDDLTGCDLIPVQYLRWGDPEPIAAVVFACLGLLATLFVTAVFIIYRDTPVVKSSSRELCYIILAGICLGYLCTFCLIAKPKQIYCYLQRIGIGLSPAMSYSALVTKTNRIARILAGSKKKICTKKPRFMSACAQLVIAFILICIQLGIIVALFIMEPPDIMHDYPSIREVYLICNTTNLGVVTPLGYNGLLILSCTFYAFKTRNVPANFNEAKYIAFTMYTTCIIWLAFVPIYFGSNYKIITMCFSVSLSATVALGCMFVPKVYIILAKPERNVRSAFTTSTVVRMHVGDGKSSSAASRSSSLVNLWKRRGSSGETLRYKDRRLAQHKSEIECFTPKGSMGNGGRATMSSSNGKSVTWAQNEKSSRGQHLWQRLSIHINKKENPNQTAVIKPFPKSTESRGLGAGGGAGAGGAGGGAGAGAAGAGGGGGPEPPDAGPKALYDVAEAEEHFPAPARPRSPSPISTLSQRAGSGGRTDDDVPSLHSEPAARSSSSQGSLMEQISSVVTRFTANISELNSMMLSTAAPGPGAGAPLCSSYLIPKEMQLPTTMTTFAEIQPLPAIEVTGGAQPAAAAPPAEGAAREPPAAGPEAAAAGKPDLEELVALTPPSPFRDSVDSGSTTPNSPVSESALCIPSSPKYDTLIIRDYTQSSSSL
row,inhibition at 10 µM,SMILES
1,81%,"Cc1cccc(C#Cc2cccc(-c3nc4ccc(Cl)cn4c3NC3CCCC3)c2)n1 [Example 319, 6-chloro-N-cyclopentyl-2-(3-((6-methylpyridin-2-yl)ethynyl)phenyl)imidazo[1,2-a]pyridin-3-amine]"
2,44%,"Cc1cc(C#Cc2ccc(-c3nc4ccccn4c3NC(C)(C)C)s2)ccc1F [Example 348, N-tert-butyl-2-(5-((4-fluoro-3-methylphenyl)ethynyl)thiophen-2-yl)imidazo[1,2-a]pyridin-3-amine hydrochloride]"

# The next lines start with the compound.
row,SMILES,inhibition at 10 µM
1,"Cc1cccc(C#Cc2cccc(-c3nc4cc(C(C)C)ccn4c3NC(C)(C)C)c2)n1 [Example 309, N-tert-butyl-7-isopropyl-2-(3-((6-methylpyridin-2-yl)ethynyl)phenyl)imidazo[1,2-a]pyridin-3-amine]",82%
2,"Clc1ccc2nc(-c3ccc(C#Cc4ccccn4)s3)c(NC3CCCC3)n2c1 [Example 310, 6-chloro-N-cyclopentyl-2-(5-(pyridin-2-ylethynyl)thiophen-2-yl)imidazo[1,2-a]pyridin-3-amine]",86%
3,"CC(C)(C)Nc1c(-c2ccc(C#Cc3ccccn3)s2)nc2ccc(Cl)cn12 [Example 311, N-tert-butyl-6-chloro-2-(5-(pyridin-2-ylethynyl)thiophen-2-yl)imidazo[1,2-a]pyridin-3-amine]",86%
4,"Clc1ccc2nc(-c3cccc(C#Cc4ccccn4)c3)c(NC3CCCCC3)n2c1 [Example 312, 6-chloro-N-cyclohexyl-2-(3-(pyridin-2-ylethynyl)phenyl)imidazo[1,2-a]pyridin-3-amine]",64%
5,"CC(C)(C)CC(C)(C)Nc1c(-c2cccc(C#Cc3ccccn3)c2)nc2ccc(Cl)cn12 [Example 313, 6-chloro-2-(3-(pyridin-2-ylethynyl)phenyl)-N-(2,4,4-trimethylpentan-2-yl)imidazo[1,2-a]pyridin-3-amine]",33%
6,"CC(C)(C)Nc1c(-c2ccc(C#Cc3ccccn3)cc2)nc2ccc(Cl)cn12 [Example 314, N-tert-butyl-6-chloro-2-(4-(pyridin-2-ylethynyl)phenyl)imidazo[1,2-a]pyridin-3-amine]",79%
7,"Clc1ccc2nc(-c3ccc(C#Cc4ccccn4)cc3)c(NC3CCCCC3)n2c1 [Example 315, 6-chloro-N-cyclohexyl-2-(4-(pyridin-2-ylethynyl)phenyl)imidazo[1,2-a]pyridin-3-amine]",75%
8,"CC(C)(C)Nc1c(-c2ccc(C#Cc3ccccn3)o2)nc2ccc(Cl)cn12 [Example 316, N-tert-butyl-6-chloro-2-(5-(pyridin-2-ylethynyl)furan-2-yl)imidazo[1,2-a]pyridin-3-amine]",55%
9,"Clc1ccc2nc(-c3ccc(C#Cc4ccccn4)o3)c(NC3CCCCC3)n2c1 [Example 317, 6-chloro-N-cyclohexyl-2-(5-(pyridin-2-ylethynyl)furan-2-yl)imidazo[1,2-a]pyridin-3-amine]",58%
10,"CC(C)(C)CC(C)(C)Nc1c(-c2ccc(C#Cc3ccccn3)o2)nc2ccc(Cl)cn12 [Example 318, 6-chloro-2-(5-(pyridin-2-ylethynyl)furan-2-yl)-N-(2,4,4-trimethylpentan-2-yl)imidazo[1,2-a]pyridin-3-amine]",43%
11,"Cc1cccc(C#Cc2cccc(-c3nc4ccc(Cl)cn4c3NC(C)(C)C)c2)n1 [Example 320, N-tert-butyl-6-chloro-2-(3-((6-methylpyridin-2-yl)ethynyl)phenyl)imidazo[1,2-a]pyridin-3-amine]",77%
12,"CC(C)(C)Nc1c(-c2ccc(C#Cc3ccc(Cl)s3)s2)nc2ccccn12 [Example 338, tert-butyl-{2-[5-(5-chloro-thiophen-2-ylethynyl)-thiophen-2-yl]-imidazo[1,2-a]pyridin-3-yl}-amine hydrochloride]",52%
13,"CC(C)(C)Nc1c(-c2ccc(C#Cc3cc(F)cc(F)c3)s2)nc2ccccn12 [Example 349, N-tert-butyl-2-(5-((3,5-difluorophenyl)ethynyl)thiophen-2-yl)imidazo[1,2-a]pyridin-3-amine]",39%

# Same assay, conditions: 3[H]-MPEP binding
row,pIC50,SMILES
1,7.31,"CC(C)(C)Nc1c(-c2ccc(C#Cc3cccs3)s2)nc2cnccn12.Cl [Example 110, N-tert-butyl-2-(5-(thiophen-2-ylethynyl)thiophen-2-yl)imidazo[1,2-a]pyrazin-3-amine hydrochloride]"
2,6.92,"CNc1c(-c2ccc(C#Cc3ccccn3)s2)nc2cnccn12 [Example 322, N-methyl-2-(5-(pyridin-2-ylethynyl)thiophen-2-yl)imidazo[1,2-a]pyrazin-3-amine]"
3,7.23,"CC(C)(C)CC(C)(C)Nc1c(-c2ccc(C#Cc3ccccn3)s2)nc2ccccn12 [Example 324, [2-(5-pyridin-2-ylethynyl-thiophen-2-yl)-imidazo[1,2-a]pyridin-3-yl]-(1,1,3,3-tetramethyl-butyl)-amine]"
4,6.49,"Cc1ccc(C#Cc2ccc(-c3nc4ccccn4c3NC(C)(C)C)s2)nc1 [Example 339, tert-butyl-{2-[5-(5-methyl-pyridin-2-ylethynyl)-thiophen-2-yl]-imidazo[1,2-a]pyridin-3-yl}-amine hydrochloride]"
5,6.62,"CC(C)(C)Nc1c(-c2ccc(C#Cc3cccc(CO)c3)s2)nc2ccccn12 [Example 341, {3-[5-(3-tert-butylamino-imidazo[1,2-a]pyridin-2-yl)-thiophen-2-ylethynyl]-phenyl}-methanol hydrochloride]"
6,7.03,"CC(C)(C)Nc1c(-c2ccc(C#Cc3cccs3)s2)nc2ccccn12 [Example 343, N-tert-butyl-2-(5-(thiophen-2-ylethynyl)thiophen-2-yl)imidazo[1,2-a]pyridin-3-amine hydrochloride]"
7,6.77,"CC(C)(C)Nc1c(-c2ccc(C#Cc3ccc(F)c(C#N)c3)s2)nc2ccccn12 [Example 344, 5-((5-(3-(tert-butylamino)imidazo[1,2-a]pyridin-2-yl)thiophen-2-yl)ethynyl)-2-fluorobenzonitrile hydrochloride]"
8,6.17,"COCc1cccc(C#Cc2ccc(-c3nc4ccccn4c3NC(C)(C)C)s2)c1 [Example 346, N-tert-butyl-2-(5-((3-(methoxymethyl)phenyl)ethynyl)thiophen-2-yl)imidazo[1,2-a]pyridin-3-amine]"
9,6.04,"CC(C)(C)Nc1c(-c2ccc(C#Cc3cccc(N)c3)s2)nc2ccccn12 [Example 347, 2-(5-((3-aminophenyl)ethynyl)thiophen-2-yl)-N-tert-butylimidazo[1,2-a]pyridin-3-amine hydrochloride]"
10,6.24,"CC(C)(C)Nc1c(-c2ccc(C#Cc3ccsc3)s2)nc2ccccn12 [Example 350, N-tert-butyl-2-(5-(thiophen-3-ylethynyl)thiophen-2-yl)imidazo[1,2-a]pyridin-3-amine hydrochloride]"

# The remaining lines, values behind:
row,SMILES,pIC50
1,"CC(C)(C)Nc1c(-c2ccc(C#Cc3ncccn3)s2)nc2ccccn12 [Example 325, tert-butyl-[2-(5-pyrimidin-2-ylethynyl-thiophen-2-yl)-imidazo[1,2-a]pyridin-3-yl]-amine hydrochloride]",7.89
2,"CC(C)(C)Nc1c(-c2ccc(C#Cc3ncccc3N)s2)nc2ccccn12 [Example 326, {2-[5-(3-amino-pyridin-2-ylethynyl)-thiophen-2-yl]-imidazo[1,2-a]pyridin-3-yl}-tert-butyl-amine]",7.41
3,"CC(C)(C)Nc1c(-c2ccc(C#Cc3nccs3)s2)nc2ccccn12 [Example 332, tert-butyl-[2-(5-thiazol-2-ylethynyl-thiophen-2-yl)-imidazo[1,2-a]pyridin-3-yl]-amine hydrochloride]",7.85
4,"CC(C)(C)Nc1c(-c2ccc(C#Cc3cccc(OC(F)(F)F)c3)s2)nc2cnccn12 [Example 333, tert-butyl-{2-[5-(3-trifluoromethoxy-phenylethynyl)-thiophen-2-yl]-imidazo[1,2-a]pyrazin-3-yl}-amine]",6.38
5,"CC(C)(C)Nc1c(-c2ccc(C#Cc3cccc(C4OCCO4)c3)s2)nc2ccccn12 [Example 334, tert-butyl-{2-[5-(3-[1,3]dioxolan-2-yl-phenylethynyl)-thiophen-2-yl]-imidazo[1,2-a]pyridin-3-yl}-amine]",5.00
6,"CC(C)(C)Nc1c(-c2ccc(C#Cc3ncccc3F)s2)nc2ccccn12 [Example 336, tert-butyl-{2-[5-(3-fluoro-pyridin-2-ylethynyl)-thiophen-2-yl]-imidazo[1,2-a]pyridin-3-yl}-amine hydrochloride]",8.21
7,"Cn1cncc1C#Cc1ccc(-c2nc3ccccn3c2NC(C)(C)C)s1 [Example 337, tert-butyl-{2-[5-(3-methyl-3H-imidazol-4-ylethynyl)-thiophen-2-yl]-imidazo[1,2-a]pyridin-3-yl}-amine hydrochloride]",5.20
8,"CC(=O)c1cccc(C#Cc2ccc(-c3nc4ccccn4c3NC(C)(C)C)s2)c1 [Example 340, 1-{3-[5-(3-tert-butylamino-imidazo[1,2-a]pyridin-2-yl)-thiophen-2-ylethynyl]-phenyl}-ethanone hydrochloride]",6.21
9,"COc1cccnc1C#Cc1ccc(-c2nc3ccccn3c2NC(C)(C)C)s1 [Example 342, N-tert-butyl-2-(5-((3-methoxypyridin-2-yl)ethynyl)thiophen-2-yl)imidazo[1,2-a]pyridin-3-amine]",5.87
10,"Cc1cccnc1C#Cc1ccc(-c2nc3ccccn3c2NC(C)(C)C)s1 [Example 351, N-tert-butyl-2-(5-((3-methylpyridin-2-yl)ethynyl)thiophen-2-yl)imidazo[1,2-a]pyridin-3-amine hydrochloride]",6.64
